In the SangsterLogP compilation one finds logP data, which are given here for ten compounds.

Molecules are shown by their SMILES.

What is called logP is a log measure of how a compound divides between an organic and an aqueous phase. A low value points to lower lipophilicity. As to `C/C=C(/C)C(=O)O[C@@H]1[C@H](OC(C)=O)c2c(ccc3ccc(=O)oc23)OC1(C)C`, the logP was found to be 3.75.

`C/C=C(/C)C(=O)O[C@H]1C[C@@](C)(O)C(=O)[C@@H](OC(=O)/C(C)=C\C)[C@@]2(C)CC[C@@](O)(C(C)C)[C@@H]12` yielded a log partition coefficient (logP) of 3.29.

`COc1cc2ccc(=O)oc2cc1OC` came in with a logP of 2.45.

Turning to `COc1ccc2ccc(=O)oc2c1CC1OC1(C)C` (stereo not given), the logP amounted to 3.03.

On to `O=c1cc(O)c2ccccc2o1`, for which the logP is 1.42.

The compound `COc1ccc2c(C)cc(=O)oc2c1` came in with a log partition coefficient (logP) of 3.16.

For `CC(C)=CCOc1ccc2ccc(=O)oc2c1`, the lipophilicity (logP) worked out at 3.91.

On to `COc1c2ccoc2c(OCC=C(C)C)c2oc(=O)ccc12`, for which the log partition coefficient (logP) came to 3.86.

On to `C/C=C(/C)C(=O)O[C@H]1[C@@H](O)c2c(ccc3ccc(=O)oc23)OC1(C)C`, for which the log partition coefficient (logP) worked out at 3.56.

`C/C=C(\C)C(=O)OC1c2c(ccc3ccc(=O)oc23)OC(C)(C)[C@@H]1OC(=O)/C(C)=C/C` (stereo not given in full) yielded a lipophilicity (logP) of 4.41.
